# Reference: ChEMBL document CHEMBL1125639, “Synthesis and resolution of (+-)-7-chloro-8-hydroxy-1-(3'-iodophenyl)-3-methyl-2,3,4,5-tetrahydro- 1H-3- benzazepine (TISCH): a high affinity and selective iodinated ligand for CNS D1 dopamine receptor” (J Med Chem, 1991)
# Species on record: Rattus norvegicus
# Type: functional, Striatum, Membrane
# Description: Inhibition constant of compound on R-(+)-125[I]-8 radioligand binding to rat striatal membranes
compound,measurement,value
NCCc1ccc(O)c(O)c1 [DOPAMINE],Ki,> 3000 nM
